We go through one compound from patent US20070203244A1, “INHIBITORS OF MEMBRANE TYPE-1 MATRIX METALLOPROTEINASE FOR THE TREATMENT OF INSULIN-DEPENDENT DIABETES MELLITUS” (priority 2006, published 2007).

In data set [1] the test system is CD44 shedding in IS-CD8+ cells. Briefly: CD44 shedding in adherent IS-CD8+ cells, Western blotting. The class given is cell-based, NOD mouse. On the procedure: Western Blotting—IS-CD8^+ cells were surface biotinylated for 1 h at 4° C. with 0.1 mg/ml sulfo-NHS-LC-biotin (Pierce, Rockford, Ill.). Following washes to remove biotin, cells were co-incubated for 2 h with MT1-MMP-CAT in serum-free, unsupplemented Click's medium. The cells were then lysed with 50 mM N-octyl-β-D-glucopyranoside in phosphate-buffered saline supplemented with 1 mM CaCl2, 1 mM MgCl2, and protease inhibitor mixture containing phenylmethylsulfonyl fluoride (1 mM) and aprotinin, pepstatin, and leupeptin (1 μg/ml each). Biotin-labeled CD44 was captured from the cell lysate and from the medium aliquots on streptavidin-agarose beads. The captured samples were examined by Western blotting with the CD44 (clone IM7.8.1) antibody to determine the released, soluble, CD44 ectodomain in the medium samples and the residual, membrane-anchored, cellular CD44 in the cell lysates.
Western blotting—IS-CD8^+ cells were surface biotinylated for 1 hr at 4° C. with 0.1 mg/ml of sulfo-NES-LC-biotin (Pierce). Following washes to remove biotin, the labeled cells were allowed to adhere in serum-free medium to plastic coated with 2% type I collagen/gelatin for 4 h or were kept in suspension. Under these experimental conditions, the vast majority of the cells became attached to gelatin. […] The cells were then lysed with 50 mM N-octyl-β-D-glucopyranoside in PBS supplemented with 1 mM CaCl2, 1 mM MgCl2, and protease inhibitor cocktail containing phenylmethylsulfonyl fluoride (1 mM) and aprotinin, pepstatin, and leupeptin (1 μg/ml each). Biotin-labeled CD44 was captured from the cell lysate and from the medium aliquots on streptavidine-Agarose beads. The captured samples were examined by Western blotting with the CD44 (clone IM7.8.1) antibody to determine the released, soluble, CD44 ectodomain in the medium samples and the residual, membrane-anchored, cellular CD44 in the cell lysates.
A general note: In western blotting, separated proteins are transferred to a membrane and probed.

For data set [2], the system named is NOD mice. Briefly: Spontaneous diabetes in NOD mice, insulin jointly with AG3340. It is filed as in vivo. On the procedure: Newly diabetic NOD mice—NOD mice developed diabetes in approximately 5 months after the birth. The onset of spontaneous diabetes was identified by assessing urine glucose levels with Diastix® strips (Bayer). Mice with urine glucose levels >2000 mg/dl for three consecutive days were considered diabetic. […] Injections were continued for 40 days and then mice were sacrificed. Leukocytes and granulated β cells were stained with H&E and aldehyde fuchsin, respectively, in the sections of paraformaldehyde-fixed, paraffin-embedded, pancreata. […] To identify hormone-producing cells the sections were stained with the antibody to insulin (Linco Research, St. Charles, Mo.) and glucagons (DacoCytomation, Carpinteria, Calif.) followed by species-specific secondary horseradish peroxidase-conjugated antibody and a 3,3′-diaminobenzidine substrate.
Insulin injections were then suspended. Mice which after the onset of the disease received insulin became hyperglycemic in a matter of 2-3 days and were then sacrificed according to NIH guidelines.

For data set [3] the following is noted: continuous oral dosing, cited from earlier work.
The test system of data set [4] is IS-CD8+ T cells. The experiment in a line: Homing of DiI-labeled IS-CD8+ T cells into the pancreatic islets of NOD mice. It is filed as in vivo. The settings on record: 24 h. On the procedure: Fluorescent Tracing and Morphometric Analysis—For trafficking studies, IS-CD8^+ T cells were incubated at 1×10^7 cells/ml for 30 min at 37° C. in the dark in complete Click's medium containing 5% fetal calf serum and 0.0075 mg/ml of the fluorescent dye 1,1′-didodecyl-3,3,3′,3′-tetramethylindocarbocyanine perchlorate (DiI; Molecular Probes, Eugene, Oreg.). After incubation, the cells were washed three times with phosphatebuffered saline to remove excess DiI. Labeled IS-CD8^+ cells (1×10^7 cells) were injected intravenously in 0.2 ml of phosphate-buffered saline into irradiated (725 rads, 24 h in advance) NOD mice. Mice were sacrificed 24 h after injection of DiI-labeled cells. The spleen and the pancreata were excised and fixed in 0.1 M periodate-lysine-paraformaldehyde phosphate buffer. The organs were next sucrose-saturated, freeze-molded in OCT compound (Sakura Finetek Inc., Torrance, Calif.), and freeze-sectioned. 7-μm-thick cryostat sections of the entire pancreas were prepared at 60-μm intervals using a Leica CM1900 cryotom. Distribution of DiI-labeled CD8^+ cells within the islets was examined using a fluorescent microscope. At least 100 individual islets per mouse (4-5 mice/experimental group) were examined. The characteristic morphology of the islets is easily identified on the cryosections. DiI-labeled cells were counted within the area relevant to each individual islet (see FIG. 3 for a representative image; the islet-relevant area is depicted by the solid white line, and the islet boundaries are shown by the white dotted line). The position of each IS-CD8^+ labeled cell was determined relative to the islet boundary. The labeled cells localized within the islet boundary were considered to be “inside,” whereas the labeled cells adjacent to the islet but outside of the islet boundary were considered to be “at the entrance.” This method has been described in substantial detail (Savinov, A. Y., et al. (2003), and Savinov, A. Y., et al. (2001), which are herein incorporated by reference in their entirety for their teaching of these methods).
Fluorescent tracing and morphometric analysis—For trafficking studies, IS-CD8^+ T cells were incubated at 1×10^7 cells/ml for 30 min at 37° C. in the dark in the complete Click's medium containing 5% FCS and 0.0075 mg/ml of fluorescent dye 1,1′-didodecyl-3,3,3′,3′-tetramethylindocarbocyanine perchlorate (DiI; Molecular Probes). After incubation, the cells were washed three times with PBS to remove excess DiI. Labeled IS-CD8^+ cells (1×10^7 cells) were intravenously injected in 0.2 ml of PBS into irradiated (725 Rad, 24 h in advance) NOD mice. Mice were sacrificed 24 h after injection of DiI-labeled cells. […] In 24 h, the spleen and the pancreata were excised and fixed in 0.1 M periodate-lysine-paraformaldehyde phosphate buffer. The organs were next sucrose-saturated, freeze-molded in OCT compound (Sakura Finetek Inc.) and freeze-sectioned. 7-μm-thick cryostat sections of the entire pancreas were prepared at the 60 μm intervals using a Leica CM1900 cryotom. Distribution of DiI-labeled CD8^+ cells within the islets was examined using a fluorescent microscope. At least 100 individual islets per mouse, 4-5 mice per each experimental group, were examined. The characteristic morphology of the islets is easily identified on the cryosections. DiI-labeled cells were counted within the area relevant to each individual islet. The position of each IS-CD8^+ labeled cell was determined relative to the islet boundary. […]

Data set [5] addresses MT1-MMP. The settings on record: cited from earlier work.
Where [6] appears, read: AG3340 1 mg/kg i.p. with insulin, 40 days.

Each structure is given as a SMILES string.

`CC1(C)SCCN(S(=O)(=O)c2ccc(Oc3ccncc3)cc2)[C@H]1C(=O)NO` [AG3340]: in data set [1] (Example 2: AG3340 50 μM, TIMP-1 and TIMP-2 100 ng/ml), the “shedding of CD44 in adherent cells” value is listed as “fully blocked”. Also, the “shedding of CD44 in adherent cells” value in data set [1] (Example 3) is given as “fully blocked”. Further, in data set [2] (setting [6]), the “islet regeneration in the pancreatic parenchyma” value was “de novo formation of the islet-like structures”; the “number of the intact islets and the islets with limited peri-islet insulitis” value was “increase”. In data set [2] (insulin jointly with AG3340 for 40 days, then no external insulin), the “glycemia after insulin injections were suspended” value is on record as “normoglycemic/mildly hyperglycemic for several weeks”. Also, in data set [2] (insulin s.c. jointly with AG3340 1 mg/kg i.p. every two-three days, 40 days), the “severity of insulitis compared to the control” value is “significant and promising reduction”. In data set [2] (short-term treatment, AG3340 1 mg/kg i.p. with insulin, 40 days), the “return of overtly diabetic mice to normoglycemia” value is “not sufficient”. The “dose inducing musculoskeletal effects that required dose discontinuation in more than half of the subjects” value in data set [3] (2 to 100 mg/day in two doses per day) is on record as “above 25 mg/day”. In addition, the severe dose-limiting toxicity result in data set [3] (2 to 100 mg/day) is reported as “did not result in severe dose-limiting toxicity”. The “IS-CD8+ cells found inside the islets” value in data set [4] (Example 1: cells co-incubated 2 h with AG3340 50 μM before injection) is reported as “smaller number of cells”. The “reduction in the T cell homing” value in data set [4] (Example 2: AG3340 1 mg/kg i.v. 30 min before cells) stood at 50%. For the same compound, the “homing of IS-CD8+ cells inside the islets” value in data set [4] (Example 3: inhibitor i.p. before cells, SB-3CT and EGCG at much higher concentrations than AG3340) is listed as “several-fold less cells”. In addition, the “Ki for MT1-MMP” value in data set [5] is recorded as “sub-nanomolar”.
